Numbers after ± are expanded uncertainties.
Columns and labels:
[1] = wn = mass fraction of the nth substance listed; conditions: 101.3 kPa, Liquid, Vibrating tube method
[2] = refractive index (Na D-line) (dimensionless); wn = mass fraction of the nth substance listed; conditions: 101.3 kPa, Liquid, Standard Abbe refractometry

[Cl-].[Cs+] [cesium chloride] + O
mass density ([1]; 298.15 K, w1 = 0.6538): 1923.9 ± 3.6 kg/m3 | mass density ([1]; 308.15 K, w1 = 0.6693): 1946.1 ± 3.6 kg/m3 | mass density ([1]; 318.15 K, w1 = 0.6788): 1980.8 ± 3.7 kg/m3 | refractive index ([2]; 298.15 K, w1 = 0.6538): 1.4196 ± 0.002 | refractive index ([2]; 308.15 K, w1 = 0.6693): 1.4204 ± 0.002 | refractive index ([2]; 318.15 K, w1 = 0.6788): 1.4218 ± 0.002

[Cl-].[Na+] [sodium chloride] + O
mass density ([1]; 298.15 K, w1 = 0.263): 1197.8 ± 3.1 kg/m3 | mass density ([1]; 308.15 K, w1 = 0.2666): 1193.6 ± 3.1 kg/m3 | mass density ([1]; 318.15 K, w1 = 0.2669): 1188.9 ± 3.1 kg/m3 | refractive index ([2]; 298.15 K, w1 = 0.263): 1.3796 ± 0.002 | refractive index ([2]; 308.15 K, w1 = 0.2666): 1.3781 ± 0.002 | refractive index ([2]; 318.15 K, w1 = 0.2669): 1.3766 ± 0.002

— the NIST ThermoML archive (doi:10.1021/acs.jced.7b00023)
